According to patent publication US11680218B2, “Biodegradable lubricant with tailored hydrolytic stability and improved thermal stability through alkoxylation of glycerol” (Tetramer Technologies, LLC, priority 2018, dated 2023):

Legend:
[1] = Differential scanning calorimetry (melt enthalpy, undercooling, percent solids index); assay type: physicochemical; settings: DSC, heating from solid, 5° C./min
Excerpt: It is known in the art that alkoxylation has the potential to decrease the pour point of an ester. However, the current disclosure has observed a surprising decrease in the melting enthalpy and a marked reduction in the degree of undercooling. The degree of undercooling for a base oil indicates the increase in temperature required to fully melt an oil after crystallization has started. The degree of undercooling for the purpose of this disclosure is described as the difference between the temperature at which a material is fully melted on heating and the temperature at which the material begins to crystallize on cooling [Tmelt−Tonset=Undercool] as determined by differential scanning calorimetry (DSC) with a heating and cooling rate of 5° C./min. “Undercooling” and “degree of undercooling” can be used synonymously.
Oils with a lower undercooling require a smaller increase in temperature after crystallization to melt the oil and erase the oil “memory.” Shelby and Miller teach the concept of oil “memory” as a result of gels or crystals not fully dissociating even when above the melt point, so that on a second cooling cycle, gelation or crystal growth occurs much more quickly and at higher temperatures. If two oils have the same crystallization onset temperature, the oil with the lower undercooling will fully melt at a lower temperature and erase the oil “memory”. […] The effect of this is that glycerol esters and polyol esters must be heated substantially above the onset of crystallization in order to melt the oil before use. […] At 5° C. above the onset of crystallization temperature, 100% of Ex. 92 (glycerol ester) is solid; 31% of Ex 93 (PG3 ester) is solid; 18% of Ex. 94 (PG10 ester) is solid; and 81% of Ex 90 (TMP ester) is solid.
Examples 90, 92-94: Reductions in the enthalpy of melting are observed for propoxylated glycerol esters and TMP esters relative to the glycerol ester, see FIG. 19, Table 5, FIG. 20, Table 6 and FIG. 21, Table 7. […] DSC analysis was conducted within the temperature range −80° C. to 40° C. with cyclic cooling and heating rates of 5° C./min. The DSC melt thermograms for each material were integrated as a function of temperature and normalized to the overall melt enthalpy to generate a percent solids index that is the basis for the data in the Solids @ Onset+T columns. The data under Solids @ Onset+5 and +10° C. are indicative of the percent of solids in a base oil when heating from a fully solid or crystalline state. […] Both glycerol and TMP esters show higher degrees of undercooling and higher melt enthalpies compared to analogous propoxylated glycerol esters, see FIG. 20, Table 6.

[2] = literature value, cited from earlier work

Row | SMILES | percent solid at 5° C. above the onset of crystallization temperature [1] [%] | percent solid at 10° C. above the crystallization onset temperature [1] | percent solid at 10° C. above the crystallization onset temperature ([1]; listed as Ex 90) [%] | percent solid at 10° C. above the crystallization onset temperature ([1]; listed as Ex. 92) | Oxidative Onset Temperature (OOT) after formulation ([2]; formulated) | Oxidative Onset Temperature (OOT) ([2]; unformulated) [°C]
1 | CCCCCCCCCCCC(=O)OCC(CC)(COC(=O)CCCCCCCCCCC)COC(=O)CCCCCCCCCCC [Example 90] | 81 | significant amounts of crystalline solids | 46 | – | – | –
2 | CCCCCCCCCCCC(=O)OCC(COC(=O)CCCCCCCCCCC)OC(=O)CCCCCCCCCCC [Example 92] | 100 | significant amounts of crystalline solids | – | not melted at all | – | –
3 | CCCCCCCC/C=C\CCCCCCCC(=O)OCC(CC)(COC(=O)CCCCCCC/C=C\CCCCCCCC)COC(=O)CCCCCCC/C=C\CCCCCCCC [TMP trioleates] | – | – | – | – | up to 206 °C | 156
